Here are results for 3 compounds from patent publication US10875850B2, “Pesticidally active azetidine sulfones amide isoxazoline derivatives” (SYNGENTA PARTICIPATIONS AG, priority 2016, dated 2020).

Common to all, as to assay type: in vivo
For one data set, the system named is Diabrotica balteata. As to the kind of experiment: Example B1: Diabrotica balteata (corn root worm), maize sprouts sprayed. Conditions: 96 h, read-out: effect in at least one of the two categories (mortality or growth inhibition). The method, then:
Maize sprouts placed onto an agar layer in 24-well microtiter plates were treated with aqueous test solutions prepared from 10′000 ppm DMSO stock solutions by spraying. After drying, the plates were infested with L2 larvae (6 to 10 per well). The samples were assessed for mortality and growth inhibition in comparison to untreated samples 4 days after infestation. The following compounds gave an effect of at least 80% in at least one of the two categories (mortality or growth inhibition) at an application rate of 200 ppm: A01, A02, A03, A04, A05, A06, A07, A08, A09, A10, A11, A12, A13, A14, A15, A16, A17, A18, A19, A20, A21, A22, A23, A24, A25, A26, A27, A28, B01

In data set [1] the test system is Plutella xylostella. As to the kind of experiment: Example B4: Plutella xylostella (diamond back moth), artificial diet. The settings on record: 120 h, read-out: effect in at least one of the two categories (mortality or growth inhibition). On the procedure: 24-well microtiter plates with artificial diet were treated with aqueous test solutions prepared from 10′000 ppm DMSO stock solutions by pipetting. After drying, the plates were infested with L2 larvae (10 to 15 per well). The samples were assessed for mortality and growth inhibition in comparison to untreated samples 5 days after infestation. The following compounds gave an effect of at least 80% in at least one of the two categories (mortality or growth inhibition) at an application rate of 200 ppm: A01, A02, A03, A04, A05, A06, A07, A08, A09, A10, A11, A12, A13, A14, A15, A16, A17, A18, A19, A20, A21, A22, A23, A24, A25, A26, A27, A28, B01

Data set [2] deals with Spodoptera littoralis. In words: Example B5: Spodoptera littoralis (Egyptian cotton leaf worm), feeding/contact activity. Conditions: 72 h. On the procedure:
Cotton leaf discs were placed onto agar in 24-well microtiter plates and sprayed with aqueous test solutions prepared from 10′000 ppm DMSO stock solutions. After drying the leaf discs were infested with five L1 larvae. The samples were assessed for mortality 3 days after infestation.

The test system of data set [3] is Tetranychus urticae. As to the kind of experiment: Example B6: Tetranychus urticae (two-spotted spider mite), feeding/contact activity. The settings on record: 192 h, read-out: mortality on mixed population (mobile stages). The method, then:
Bean leaf discs on agar in 24-well microtiter plates were sprayed with aqueous test solutions prepared from 10′000 ppm DMSO stock solutions. After drying the leaf discs were infested with a mite population of mixed ages. The samples were assessed for mortality on mixed population (mobile stages) 8 days after infestation.

Another data set relates to Euschistus heros. In words: Example B2: Euschistus heros (neotropical brown stink bug), soybean leaves sprayed. Conditions: 120 h, read-out: effect in at least one of the two categories (mortality or growth inhibition). On the procedure:
Soybean leaves on agar in 24-well microtiter plates were sprayed with aqueous test solutions prepared from 10′000 ppm DMSO stock solutions. After drying the leaves were infested with N2 nymphs. The samples were assessed for mortality and growth inhibition in comparison to untreated samples 5 days after infestation. The following compounds gave an effect of at least 80% in at least one of the two categories (mortality or growth inhibition) at an application rate of 200 ppm: A01, A02, A03, A04, A05, A06, A07, A08, A09, A10, A11, A12, A13, A14, A15, A16, A17, A18, A19, A20, A21, A22, A23, A24, A25, A26, A27, A28, B01

The test system of data set [4] is Myzus persicae. In words: Example B3: Myzus persicae (green peach aphid), intrinsic activity. Conditions: 120 h. The method, then: Test compounds prepared from 10′000 ppm DMSO stock solutions were applied by pipette into 24-well microtiter plates and mixed with sucrose solution. The plates were closed with a stretched Parafilm. A plastic stencil with 24 holes was placed onto the plate and infested pea seedlings were placed directly on the Parafilm. The infested plate was closed with a gel blotting paper and another plastic stencil and then turned upside down. The samples were assessed for mortality 5 days after infestation.

Data set [5] has as its system Thrips tabaci. As to the kind of experiment: Example B7: Thrips tabaci (onion thrips), feeding/contact activity. The settings on record: 144 h. The method, then: Sunflower leaf discs were placed on agar in 24-well microtiter plates and sprayed with aqueous test solutions prepared from 10′000 ppm DMSO stock solutions. After drying the leaf discs were infested with a thrips population of mixed ages. The samples were assessed for mortality 6 days after infestation.

Data set [6] has as its system Thrips tabaci. In words: Comparative Example C4: Thrips tabaci, feeding/contact activity, various application rates. The settings on record: 6 days after infestation. On the procedure:
Sunflower leaf discs were placed on agar in 24-well microtiter plates and sprayed with aqueous test solutions prepared from 10′000 ppm DMSO stock solutions. After drying the leaf discs were infested with a thrips population of mixed ages. The samples were assessed for mortality (%) 6 days after infestation at the various application rates.

For data set [7], the system named is Plutella xylostella. In words: Comparative Example C1: Plutella xylostella, feeding/contact activity, various application rates. The settings on record: 5 days after infestation. The method, then:
24-well microtiter plates with artificial diet were treated with aqueous test solutions prepared from 10′000 ppm DMSO stock solutions by pipetting. After drying, the plates were infested with L2 larvae (10 to 15 per well). The samples were assessed for mortality (%) 5 days after infestation at the various application rates.

The test system of data set [8] is Spodoptera littoralis. As to the kind of experiment: Comparative Example C2: Spodoptera littoralis, feeding/contact activity, various application rates. The settings on record: 3 days after infestation. The method, then: (§1) Cotton leaf discs were placed onto agar in 24-well microtiter plates and sprayed with aqueous test solutions prepared from 10′000 ppm DMSO stock solutions. After drying the leaf discs were infested with five L1 larvae. The samples were assessed for mortality (%) 3 days after infestation at the various application rates. Example C3: Tetranychus urticae (Two-Spotted Spider Mite): Feeding/Contact Activity Bean leaf discs on agar in 24-well microtiter plates were sprayed with aqueous test solutions prepared from 10′000 ppm DMSO stock solutions. After drying the leaf discs were infested with a mite population of mixed ages. The samples were assessed for mortality on mixed population (%) (mobile stages) 8 days after infestation at the various application rates.

The subject of data set [9] is Tetranychus urticae. In words: Comparative Example C3: Tetranychus urticae, feeding/contact activity, various application rates. Conditions: 8 days after infestation. On the procedure:
as §1

Data set [10] concerns Myzus persicae. In words: Example B8: Myzus persicae (green peach aphid), feeding/contact activity. Conditions: 144 h. The method, then: Sunflower leaf discs were placed onto agar in a 24-well microtiter plate and sprayed with aqueous test solutions prepared from 10′000 ppm DMSO stock solutions. After drying, the leaf discs were infested with an aphid population of mixed ages. The samples were assessed for mortality 6 days after infestation.

Each structure is given as a SMILES string.

With `CCS(=O)(=O)N1CC(NC(=O)c2ccc(C3=NO[C@@](c4cc(Cl)cc(Cl)c4)(C(F)(F)F)C3)cc2C)C1` [Compound A11, 4-[(5S)-5-(3,5-dichlorophenyl)-5-(trifluoromethyl)-4H-isoxazol-3-yl]-N-(1-ethylsulfonylazetidin-3-yl)-2-methyl-benzamide], the percent control (mortality or growth inhibition) at 200 ppm in the data set on Diabrotica balteata, with Plutella xylostella [1] and in the data set on Euschistus heros was no less than 80% throughout. Further, the mortality at 200 ppm in the data set on Spodoptera littoralis [2], in the data set on Tetranychus urticae [3] and in the data set on Thrips tabaci [5] was no less than 80% throughout. The compound also displayed a mortality at 12 ppm in the data set on Myzus persicae [4] of no less than 80%.

On to `Cc1cc(C2=NOC(c3cc(Cl)cc(Cl)c3)(C(F)(F)F)C2)ccc1C(=O)NC1CN(S(C)(=O)=O)C1` (centres unmarked) [Compound A02], for which the “Thrips tabaci mixed population average mortality (%)” value is 0% in the data set with Thrips tabaci [6] (application rate 0.195 ppm); 100% with Thrips tabaci [6] (application rate 0.781 ppm); 100% in the data set on Thrips tabaci [6] (application rate 3.12 ppm); 100% in the data set on Thrips tabaci [6] (application rate 12.5 ppm); 100% in the data set on Thrips tabaci [6] (application rate 50 ppm); 100% in the data set with Thrips tabaci [6] (application rate 200 ppm). The “Plutella xylostella larval average mortality (%)” value with Plutella xylostella [7] (application rate 0.195 ppm) amounted to 80%; in the data set on Plutella xylostella [7] (application rate 0.781 ppm), 100%; in the data set with Plutella xylostella [7] (application rate 3.12 ppm), 100%; in the data set on Plutella xylostella [7] (application rate 12.5 ppm), 100%; in the data set with Plutella xylostella [7] (application rate 50 ppm), 100%; in the data set on Plutella xylostella [7] (application rate 200 ppm), 100%. Also, the “Spodoptera littoralis larval average mortality (%)” value is listed as 50% in the data set with Spodoptera littoralis [8] (application rate 0.195 ppm); 100% in the data set on Spodoptera littoralis [8] (application rate 0.781 ppm); 100% in the data set with Spodoptera littoralis [8] (application rate 3.12 ppm); 100% with Spodoptera littoralis [8] (application rate 12.5 ppm); 100% in the data set on Spodoptera littoralis [8] (application rate 50 ppm); 100% with Spodoptera littoralis [8] (application rate 200 ppm). Also, the “Tetranychus urticae mixed population average mortality (%)” value with Tetranychus urticae [9] (application rate 0.195 ppm) was found to be 0%; with Tetranychus urticae [9] (application rate 0.781 ppm) it was 50%; with Tetranychus urticae [9] (application rate 3.12 ppm), 100%; with Tetranychus urticae [9] (application rate 12.5 ppm) it was 100%; in the data set with Tetranychus urticae [9] (application rate 50 ppm) it was 100%; with Tetranychus urticae [9] (application rate 200 ppm), 100%.

For `CS(=O)(=O)N1CC(NC(=O)c2ccc(C3=NOC(c4cc(Cl)c(F)c(Cl)c4)(C(F)(F)F)C3)c3c2CCC3)C1` (centres unmarked) [Compound B01, 7-[5-(3,5-dichloro-4-fluoro-phenyl)-5-(trifluoromethyl)-4H-isoxazol-3-yl]-N-(1-methylsulfonylazetidin-3-yl)indane-4-carboxamide], the percent control (mortality or growth inhibition) at 200 ppm in the data set with Diabrotica balteata, with Plutella xylostella [1] and in the data set with Euschistus heros was no less than 80% each time. For the same compound, the mortality at 200 ppm in the data set on Spodoptera littoralis [2], in the data set with Myzus persicae [10], in the data set on Tetranychus urticae [3] and with Thrips tabaci [5] was no less than 80% throughout.

For orientation: mortality means the share of the test organisms that died.
